PubChem BioAssay (NCI)
“And” between values parts separate entries of the source, which are not always exact repeats. Equal entries are not always repeated.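 Test compounds were applied to cells in 96-well plates for 48 hours at 5 doses. The concentration for 50% growth inhibition is given as GI50. TGI marks complete inhibition of growth.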

Key:
Experiment in all cases: inhibition of tumour cell growth, NCI panel, 48 h
TK-10 renal = system: TK-10 renal
BT-549 breast = system: BT-549 breast
HOP-62 NSCLC = system: HOP-62 NSCLC
NCI-H460 lung = system: NCI-H460 lung
COLO 205 colon = system: COLO 205 colon
SF-295 CNS = system: SF-295 CNS
K-562 leukemia = system: K-562 leukemia
HCT-15 colon = system: HCT-15 colon
UACC-62 melanoma = system: UACC-62 melanoma
OVCAR-4 ovarian = system: OVCAR-4 ovarian
SF-268 CNS = system: SF-268 CNS
ACHN renal = system: ACHN renal
HCT-116 colon = system: HCT-116 colon
HL-60(TB) leukemia = system: HL-60(TB) leukemia
OVCAR-3 ovarian = system: OVCAR-3 ovarian
CAKI-1 renal = system: CAKI-1 renal
UACC-257 melanoma = system: UACC-257 melanoma
MDA-N = system: MDA-N
NCI-H23 lung = system: NCI-H23 lung
SF-539 CNS = system: SF-539 CNS
MDA-MB-435 = system: MDA-MB-435
SK-MEL-2 melanoma = system: SK-MEL-2 melanoma
SK-OV-3 ovarian = system: SK-OV-3 ovarian
UO-31 renal = system: UO-31 renal
SNB-75 CNS = system: SNB-75 CNS
A549 NSCLC = system: A549 NSCLC
RXF 393 renal = system: RXF 393 renal
HS 578T breast = system: HS 578T breast
NCI-H226 lung = system: NCI-H226 lung
PC-3 prostate = system: PC-3 prostate
MOLT-4 leukemia = system: MOLT-4 leukemia
DU-145 prostate = system: DU-145 prostate
KM12 colon = system: KM12 colon
LOX IMVI melanoma = system: LOX IMVI melanoma
RPMI-8226 leukemia = system: RPMI-8226 leukemia
SR leukemia = system: SR leukemia
HOP-92 NSCLC = system: HOP-92 NSCLC
MALME-3M melanoma = system: MALME-3M melanoma
NCI/ADR-RES ovarian = system: NCI/ADR-RES ovarian
NCI-H522 lung = system: NCI-H522 lung
T-47D breast = system: T-47D breast
OVCAR-5 ovarian = system: OVCAR-5 ovarian
IGROV1 ovarian = system: IGROV1 ovarian
MCF7 breast = system: MCF7 breast
CCRF-CEM leukemia = system: CCRF-CEM leukemia
OVCAR-8 ovarian = system: OVCAR-8 ovarian
EKVX NSCLC = system: EKVX NSCLC
HT29 colon = system: HT29 colon
MDA-MB-231 breast = system: MDA-MB-231 breast
M14 melanoma = system: M14 melanoma
HCC-2998 colon = system: HCC-2998 colon
SN12C renal = system: SN12C renal
U251 CNS = system: U251 CNS
SK-MEL-5 melanoma = system: SK-MEL-5 melanoma
786-0 renal = system: 786-0 renal
SW-620 colon = system: SW-620 colon
SNB-19 CNS = system: SNB-19 CNS
SK-MEL-28 melanoma = system: SK-MEL-28 melanoma
A498 renal = system: A498 renal

O=C1NNC(=O)c2ccccc2SSc2ccccc2C(=O)NNC(=O)c2ccccc2SSc2ccccc21
GI50 (TK-10 renal): 70.9 µM
TGI (TK-10 renal): 50 µM and > 100 µM
GI50 (BT-549 breast): 14.1 µM
TGI (BT-549 breast): 50 µM and > 100 µM
TGI (HOP-62 NSCLC): 50 µM and > 100 µM
GI50 (NCI-H460 lung): 31 µM
TGI (NCI-H460 lung): 50 µM and > 100 µM
TGI (COLO 205 colon): 50 µM
GI50 (SF-295 CNS): 16.3 µM
TGI (SF-295 CNS): 50 µM and > 100 µM
GI50 (K-562 leukemia): 3.76 µM
TGI (K-562 leukemia): 50 µM and > 100 µM
GI50 (HCT-15 colon): 4.61 µM
TGI (HCT-15 colon): 50 µM and 37.1 µM
GI50 (UACC-62 melanoma): 8.34 µM
TGI (UACC-62 melanoma): 50 µM and > 100 µM
TGI (OVCAR-4 ovarian): 50 µM and > 100 µM
GI50 (SF-268 CNS): 9.81 µM
TGI (SF-268 CNS): 30.2 µM and > 100 µM
GI50 (ACHN renal): 7.34 µM
TGI (ACHN renal): 50 µM and > 100 µM
GI50 (HCT-116 colon): 5.05 µM
TGI (HCT-116 colon): 50 µM and > 100 µM
TGI (HL-60(TB) leukemia): 23.8 µM
TGI (OVCAR-3 ovarian): 50 µM and > 100 µM
GI50 (CAKI-1 renal): 18.1 µM
TGI (CAKI-1 renal): 50 µM and > 100 µM
GI50 (UACC-257 melanoma): 45.2 µM
TGI (UACC-257 melanoma): 50 µM and > 100 µM
GI50 (MDA-N): 11.9 µM
TGI (MDA-N): 50 µM and > 100 µM
GI50 (NCI-H23 lung): 7.63 µM
TGI (NCI-H23 lung): 50 µM and 59.8 µM
GI50 (SF-539 CNS): 2.87 µM
TGI (SF-539 CNS): 50 µM and > 100 µM
GI50 (MDA-MB-435): 16.3 µM
TGI (MDA-MB-435): 50 µM and > 100 µM
GI50 (SK-MEL-2 melanoma): 4.93 µM
TGI (SK-MEL-2 melanoma): 50 µM and > 100 µM
GI50 (SK-OV-3 ovarian): > 100 µM
TGI (SK-OV-3 ovarian): 50 µM and > 100 µM
TGI (UO-31 renal): > 100 µM
TGI (SNB-75 CNS): 50 µM
GI50 (A549 NSCLC): 11.3 µM
TGI (A549 NSCLC): 50 µM and > 100 µM
TGI (RXF 393 renal): > 50 µM
GI50 (HS 578T breast): > 100 µM
TGI (HS 578T breast): > 100 µM
TGI (NCI-H226 lung): > 50 µM
GI50 (PC-3 prostate): 24.7 µM
TGI (PC-3 prostate): 50 µM and > 100 µM
TGI (MOLT-4 leukemia): 50 µM and 17.3 µM
GI50 (DU-145 prostate): 5 µM
TGI (DU-145 prostate): 50 µM and 33.6 µM
GI50 (KM12 colon): 42.3 µM
TGI (KM12 colon): 50 µM and > 100 µM
GI50 (LOX IMVI melanoma): 7.02 µM
TGI (LOX IMVI melanoma): 50 µM and > 100 µM
TGI (RPMI-8226 leukemia): 50 µM
GI50 (SR leukemia): 3.79 µM
TGI (SR leukemia): 50 µM and 32.7 µM
GI50 (HOP-92 NSCLC): > 100 µM
TGI (HOP-92 NSCLC): > 100 µM
GI50 (MALME-3M melanoma): 25.9 µM
TGI (MALME-3M melanoma): 42.6 µM and > 100 µM
GI50 (NCI/ADR-RES ovarian): 14 µM
TGI (NCI/ADR-RES ovarian): 50 µM and > 100 µM
GI50 (NCI-H522 lung): 3.43 µM
TGI (NCI-H522 lung): 50 µM and 14.5 µM
GI50 (T-47D breast): 2.34 µM
TGI (T-47D breast): 50 µM and 8.18 µM
TGI (OVCAR-5 ovarian): 50 µM and 73.8 µM
GI50 (IGROV1 ovarian): 6.66 µM
TGI (IGROV1 ovarian): 50 µM and > 100 µM
TGI (MCF7 breast): > 100 µM
GI50 (CCRF-CEM leukemia): 1.99 µM
TGI (CCRF-CEM leukemia): 35 µM and 11.8 µM
GI50 (OVCAR-8 ovarian): 15.4 µM
TGI (OVCAR-8 ovarian): 50 µM and > 100 µM
GI50 (EKVX NSCLC): 10.5 µM
TGI (EKVX NSCLC): 50 µM and > 100 µM
GI50 (HT29 colon): 20.1 µM
TGI (HT29 colon): 50 µM and 72.1 µM
GI50 (MDA-MB-231 breast): 11.4 µM
TGI (MDA-MB-231 breast): 50 µM and > 100 µM
GI50 (M14 melanoma): 6.28 µM
TGI (M14 melanoma): 50 µM and 32.5 µM
TGI (HCC-2998 colon): > 100 µM
GI50 (SN12C renal): 17 µM
TGI (SN12C renal): 50 µM and > 100 µM
GI50 (U251 CNS): 7.11 µM
TGI (U251 CNS): 50 µM and > 100 µM
GI50 (SK-MEL-5 melanoma): 42.1 µM
TGI (SK-MEL-5 melanoma): 50 µM and > 100 µM
GI50 (786-0 renal): 10 µM
TGI (786-0 renal): 50 µM and 26.6 µM
GI50 (SW-620 colon): 6.81 µM
TGI (SW-620 colon): 50 µM and > 100 µM
GI50 (SNB-19 CNS): 6.35 µM
TGI (SNB-19 CNS): 50 µM and > 100 µM
GI50 (SK-MEL-28 melanoma): 23.1 µM
TGI (SK-MEL-28 melanoma): 50 µM and > 100 µM

COc1ccc(NC(=S)Nc2cc(C)cc(C)n2)cc1
TGI (TK-10 renal): > 100 µM
TGI (BT-549 breast): > 100 µM
TGI (HOP-62 NSCLC): > 100 µM
TGI (NCI-H460 lung): > 100 µM
TGI (COLO 205 colon): > 100 µM
TGI (SF-295 CNS): > 100 µM
TGI (K-562 leukemia): > 100 µM
TGI (HCT-15 colon): > 100 µM
TGI (UACC-62 melanoma): > 100 µM
TGI (OVCAR-4 ovarian): > 100 µM
TGI (SF-268 CNS): > 100 µM
TGI (HCT-116 colon): > 100 µM
TGI (HL-60(TB) leukemia): > 100 µM
TGI (OVCAR-3 ovarian): > 100 µM
TGI (CAKI-1 renal): > 100 µM
TGI (UACC-257 melanoma): > 100 µM
TGI (MDA-N): > 100 µM
TGI (SF-539 CNS): > 100 µM
TGI (MDA-MB-435): > 100 µM
TGI (SK-MEL-2 melanoma): > 100 µM
TGI (SK-OV-3 ovarian): > 100 µM
TGI (UO-31 renal): > 100 µM
TGI (SNB-75 CNS): > 100 µM
TGI (A549 NSCLC): > 100 µM
TGI (RXF 393 renal): > 100 µM
TGI (HS 578T breast): > 100 µM
TGI (NCI-H226 lung): > 100 µM
TGI (PC-3 prostate): > 100 µM
TGI (MOLT-4 leukemia): > 100 µM
TGI (DU-145 prostate): > 100 µM
TGI (KM12 colon): > 100 µM
TGI (LOX IMVI melanoma): > 100 µM
TGI (RPMI-8226 leukemia): > 100 µM
TGI (SR leukemia): > 100 µM
TGI (MALME-3M melanoma): > 100 µM
TGI (NCI/ADR-RES ovarian): > 100 µM
TGI (NCI-H522 lung): > 100 µM
TGI (T-47D breast): > 100 µM
TGI (OVCAR-5 ovarian): > 100 µM
TGI (IGROV1 ovarian): > 100 µM
TGI (MCF7 breast): > 100 µM
TGI (CCRF-CEM leukemia): > 100 µM
TGI (OVCAR-8 ovarian): > 100 µM
TGI (EKVX NSCLC): > 100 µM
TGI (HT29 colon): > 100 µM
TGI (MDA-MB-231 breast): > 100 µM
TGI (M14 melanoma): > 100 µM
TGI (SN12C renal): > 100 µM
TGI (U251 CNS): > 100 µM
TGI (A498 renal): > 100 µM
TGI (SK-MEL-5 melanoma): > 100 µM
TGI (786-0 renal): > 100 µM
TGI (SW-620 colon): > 100 µM
TGI (SNB-19 CNS): > 100 µM
TGI (SK-MEL-28 melanoma): > 100 µM
